Data from ChEMBL document CHEMBL3991601, “The target landscape of clinical kinase drugs” (Science, 2017).
Calls of active or inactive are those of the source. Rule as the data show it, for most assays here: actives have a measured Kd and inactives only a lower limit.

Legend:
[1] = molecular target: T1, Bone morphogenetic protein receptor type-2 (Homo sapiens, UniProt Q13873)
T1 sequence (Q13873 whole entry): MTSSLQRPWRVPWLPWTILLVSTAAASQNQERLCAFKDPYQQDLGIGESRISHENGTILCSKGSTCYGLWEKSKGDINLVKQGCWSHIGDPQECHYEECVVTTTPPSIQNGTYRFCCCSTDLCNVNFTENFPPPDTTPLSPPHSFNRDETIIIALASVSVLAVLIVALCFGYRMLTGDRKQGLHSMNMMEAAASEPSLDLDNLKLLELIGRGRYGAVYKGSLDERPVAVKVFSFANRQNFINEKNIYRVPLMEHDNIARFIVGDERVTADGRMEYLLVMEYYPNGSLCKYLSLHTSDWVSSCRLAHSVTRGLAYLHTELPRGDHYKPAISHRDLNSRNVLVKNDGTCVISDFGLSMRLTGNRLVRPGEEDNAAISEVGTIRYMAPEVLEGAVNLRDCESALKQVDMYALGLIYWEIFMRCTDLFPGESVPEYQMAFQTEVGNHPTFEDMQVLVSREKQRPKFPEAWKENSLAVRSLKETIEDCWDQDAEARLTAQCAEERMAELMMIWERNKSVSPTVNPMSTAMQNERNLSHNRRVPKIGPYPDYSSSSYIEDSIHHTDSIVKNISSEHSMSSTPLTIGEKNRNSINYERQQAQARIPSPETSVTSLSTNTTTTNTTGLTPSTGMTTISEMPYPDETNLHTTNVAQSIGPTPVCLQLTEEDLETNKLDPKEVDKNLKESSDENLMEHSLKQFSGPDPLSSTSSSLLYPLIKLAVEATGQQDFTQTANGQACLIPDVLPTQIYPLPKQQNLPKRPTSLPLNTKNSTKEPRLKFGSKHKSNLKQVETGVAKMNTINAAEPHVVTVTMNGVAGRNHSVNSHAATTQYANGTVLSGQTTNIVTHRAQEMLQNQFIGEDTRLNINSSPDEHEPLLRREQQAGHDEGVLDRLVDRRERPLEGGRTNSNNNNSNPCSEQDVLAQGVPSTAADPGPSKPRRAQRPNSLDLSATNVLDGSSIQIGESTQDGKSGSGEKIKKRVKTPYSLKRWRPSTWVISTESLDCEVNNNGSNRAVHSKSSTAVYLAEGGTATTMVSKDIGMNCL

[2] = molecular target: T2, Cytochrome c1, heme protein, mitochondrial (Homo sapiens, UniProt P08574)
T2 sequence (P08574 whole entry): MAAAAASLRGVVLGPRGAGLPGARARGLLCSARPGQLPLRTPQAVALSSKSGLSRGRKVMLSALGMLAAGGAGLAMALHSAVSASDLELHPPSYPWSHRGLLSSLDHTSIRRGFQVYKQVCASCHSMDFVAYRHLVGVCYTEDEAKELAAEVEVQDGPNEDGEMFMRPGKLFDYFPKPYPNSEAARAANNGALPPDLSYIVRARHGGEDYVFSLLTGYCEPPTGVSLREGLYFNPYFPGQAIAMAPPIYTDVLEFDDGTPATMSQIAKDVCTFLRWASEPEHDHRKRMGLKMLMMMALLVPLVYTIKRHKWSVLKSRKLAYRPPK

[3] = molecular target: T3, ATP-dependent RNA helicase DDX1 (Homo sapiens, UniProt Q92499)
T3 sequence (Q92499 whole entry): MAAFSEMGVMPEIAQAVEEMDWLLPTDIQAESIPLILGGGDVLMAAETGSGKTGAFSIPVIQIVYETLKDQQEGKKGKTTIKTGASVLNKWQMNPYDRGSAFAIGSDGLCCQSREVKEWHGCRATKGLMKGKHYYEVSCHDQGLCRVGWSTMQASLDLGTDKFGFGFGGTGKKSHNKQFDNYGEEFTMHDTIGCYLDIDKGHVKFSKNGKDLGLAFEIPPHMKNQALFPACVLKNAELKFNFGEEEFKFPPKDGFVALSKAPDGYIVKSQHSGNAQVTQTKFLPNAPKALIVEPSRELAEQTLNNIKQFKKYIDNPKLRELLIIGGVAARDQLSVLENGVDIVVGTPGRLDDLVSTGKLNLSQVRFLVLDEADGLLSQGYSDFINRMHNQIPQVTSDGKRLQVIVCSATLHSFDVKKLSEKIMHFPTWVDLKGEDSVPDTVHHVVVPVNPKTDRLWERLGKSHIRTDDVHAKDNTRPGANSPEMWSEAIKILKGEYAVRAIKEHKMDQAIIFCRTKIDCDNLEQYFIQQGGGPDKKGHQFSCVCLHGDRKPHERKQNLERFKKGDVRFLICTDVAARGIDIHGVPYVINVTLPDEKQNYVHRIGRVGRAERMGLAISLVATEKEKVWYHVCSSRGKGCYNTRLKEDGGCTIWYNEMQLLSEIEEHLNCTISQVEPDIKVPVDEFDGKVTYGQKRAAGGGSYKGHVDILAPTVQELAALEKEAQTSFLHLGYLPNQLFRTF

[4] = molecular target: Mitogen-activated protein kinase kinase kinase kinase 4 (Homo sapiens, UniProt O95819)
[5] = molecular target: T4, Phosphorylase b kinase gamma catalytic chain, liver/testis isoform (Homo sapiens, UniProt P15735)
T4 sequence (P15735 whole entry): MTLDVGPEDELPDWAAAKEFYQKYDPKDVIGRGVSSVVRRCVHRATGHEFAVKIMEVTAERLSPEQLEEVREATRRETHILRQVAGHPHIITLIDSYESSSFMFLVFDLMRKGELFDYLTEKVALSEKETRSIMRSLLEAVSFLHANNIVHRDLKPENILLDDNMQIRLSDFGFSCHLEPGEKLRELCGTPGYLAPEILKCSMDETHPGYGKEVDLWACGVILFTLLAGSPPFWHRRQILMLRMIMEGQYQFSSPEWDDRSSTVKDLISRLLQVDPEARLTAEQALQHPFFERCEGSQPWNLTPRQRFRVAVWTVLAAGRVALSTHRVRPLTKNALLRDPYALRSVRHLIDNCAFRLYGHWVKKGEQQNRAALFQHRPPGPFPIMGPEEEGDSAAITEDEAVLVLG

[6] = molecular target: Serine/threonine-protein kinase N1 (Homo sapiens, UniProt Q16512)
[7] = molecular target: Proto-oncogene tyrosine-protein kinase Src (Homo sapiens, UniProt P12931)
[8] = molecular target: Tyrosine-protein kinase SYK (Homo sapiens, UniProt P43405)
Also: in the data inactive means no Kd found up to 30 µM.

Sequence of Mitogen-activated protein kinase kinase kinase kinase 4 (O95819 whole entry, canonical isoform): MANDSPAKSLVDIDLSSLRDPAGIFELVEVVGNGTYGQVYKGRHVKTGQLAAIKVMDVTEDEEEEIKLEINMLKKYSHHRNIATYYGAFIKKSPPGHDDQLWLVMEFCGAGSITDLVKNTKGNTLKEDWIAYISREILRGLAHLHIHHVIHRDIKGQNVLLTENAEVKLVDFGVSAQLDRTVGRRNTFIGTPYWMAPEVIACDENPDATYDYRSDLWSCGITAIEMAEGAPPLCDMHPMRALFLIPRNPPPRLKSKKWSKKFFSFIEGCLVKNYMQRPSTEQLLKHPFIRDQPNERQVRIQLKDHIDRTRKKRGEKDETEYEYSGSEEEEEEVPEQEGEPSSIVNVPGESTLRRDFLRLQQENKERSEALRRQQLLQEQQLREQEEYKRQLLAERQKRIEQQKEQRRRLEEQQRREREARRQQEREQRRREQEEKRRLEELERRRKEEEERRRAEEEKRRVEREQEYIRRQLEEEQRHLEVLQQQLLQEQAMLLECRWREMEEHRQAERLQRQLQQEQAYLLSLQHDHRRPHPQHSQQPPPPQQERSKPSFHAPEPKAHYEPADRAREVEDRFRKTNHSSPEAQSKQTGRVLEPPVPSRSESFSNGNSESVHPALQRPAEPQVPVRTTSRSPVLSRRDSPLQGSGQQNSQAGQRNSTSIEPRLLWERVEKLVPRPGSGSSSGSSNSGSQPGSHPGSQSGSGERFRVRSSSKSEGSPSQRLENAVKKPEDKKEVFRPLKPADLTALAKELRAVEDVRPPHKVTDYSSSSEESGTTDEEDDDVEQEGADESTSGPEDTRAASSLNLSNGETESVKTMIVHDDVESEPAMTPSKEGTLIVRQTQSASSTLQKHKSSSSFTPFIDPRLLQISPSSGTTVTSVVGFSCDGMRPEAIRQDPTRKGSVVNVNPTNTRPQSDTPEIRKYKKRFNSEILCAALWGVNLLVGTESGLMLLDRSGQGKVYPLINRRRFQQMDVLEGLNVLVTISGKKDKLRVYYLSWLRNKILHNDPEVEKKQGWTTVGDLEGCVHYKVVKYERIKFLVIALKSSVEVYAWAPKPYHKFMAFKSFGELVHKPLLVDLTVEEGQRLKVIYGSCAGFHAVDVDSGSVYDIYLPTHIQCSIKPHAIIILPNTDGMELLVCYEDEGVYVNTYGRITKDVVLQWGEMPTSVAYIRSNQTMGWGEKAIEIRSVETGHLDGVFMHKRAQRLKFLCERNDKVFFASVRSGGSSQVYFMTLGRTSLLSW
Sequence of Serine/threonine-protein kinase N1 (Q16512 whole entry): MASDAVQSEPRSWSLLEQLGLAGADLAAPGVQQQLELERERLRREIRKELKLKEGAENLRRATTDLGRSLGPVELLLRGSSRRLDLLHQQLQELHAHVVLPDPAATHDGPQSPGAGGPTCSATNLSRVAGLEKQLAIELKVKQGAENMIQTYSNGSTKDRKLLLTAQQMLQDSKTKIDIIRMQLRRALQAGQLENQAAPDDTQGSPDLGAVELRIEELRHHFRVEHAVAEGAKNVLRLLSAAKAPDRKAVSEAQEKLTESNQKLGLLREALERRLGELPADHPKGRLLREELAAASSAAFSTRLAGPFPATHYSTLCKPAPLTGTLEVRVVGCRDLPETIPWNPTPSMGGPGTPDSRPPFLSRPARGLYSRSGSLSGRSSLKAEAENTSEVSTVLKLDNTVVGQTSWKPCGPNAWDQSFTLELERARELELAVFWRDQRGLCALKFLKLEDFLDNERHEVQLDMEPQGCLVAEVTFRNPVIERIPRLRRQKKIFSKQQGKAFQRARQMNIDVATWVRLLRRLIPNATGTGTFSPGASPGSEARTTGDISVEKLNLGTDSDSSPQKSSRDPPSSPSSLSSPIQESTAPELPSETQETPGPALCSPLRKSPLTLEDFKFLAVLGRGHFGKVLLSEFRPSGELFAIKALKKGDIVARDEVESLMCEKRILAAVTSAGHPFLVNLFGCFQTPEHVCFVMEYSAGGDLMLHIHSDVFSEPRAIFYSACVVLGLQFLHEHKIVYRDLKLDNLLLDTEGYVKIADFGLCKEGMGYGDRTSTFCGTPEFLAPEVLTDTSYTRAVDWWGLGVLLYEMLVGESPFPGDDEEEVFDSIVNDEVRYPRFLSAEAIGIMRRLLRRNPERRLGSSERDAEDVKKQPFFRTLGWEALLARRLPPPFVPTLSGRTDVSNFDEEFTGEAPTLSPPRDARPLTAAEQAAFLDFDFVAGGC
Sequence of Proto-oncogene tyrosine-protein kinase Src (P12931 2-536 limits assumed): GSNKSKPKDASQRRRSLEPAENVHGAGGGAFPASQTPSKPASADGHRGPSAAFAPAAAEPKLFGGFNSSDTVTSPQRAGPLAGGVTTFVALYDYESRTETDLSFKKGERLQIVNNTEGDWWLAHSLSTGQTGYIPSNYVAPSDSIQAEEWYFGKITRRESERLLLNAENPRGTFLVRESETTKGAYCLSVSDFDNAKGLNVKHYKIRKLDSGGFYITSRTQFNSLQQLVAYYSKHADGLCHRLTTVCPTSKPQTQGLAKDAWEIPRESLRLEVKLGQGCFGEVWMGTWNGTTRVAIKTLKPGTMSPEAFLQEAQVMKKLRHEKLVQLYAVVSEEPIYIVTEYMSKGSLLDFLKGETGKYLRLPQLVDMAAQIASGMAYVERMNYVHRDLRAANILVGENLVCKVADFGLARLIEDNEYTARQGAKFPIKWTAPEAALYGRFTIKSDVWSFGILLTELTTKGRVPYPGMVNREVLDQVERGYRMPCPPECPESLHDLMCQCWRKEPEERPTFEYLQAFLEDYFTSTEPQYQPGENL

Row | Structure (SMILES) | Kd [1] | Kd [2] | Kd [3] | Kd [4] | Kd [5] | Kd [6] | Kd [7] | Kd [8]
1 | Cc1cccc(-c2nn3c(c2-c2ccnc4ccc(C(N)=O)cc24)CCC3)n1 [GALUNISERTIB] | > 30 µM (inactive) | > 30 µM (inactive) | > 30 µM (inactive) | 1.69 µM (active) | > 30 µM (inactive) | > 30 µM (inactive) | > 30 µM (inactive) | > 30 µM (inactive)
2 | COc1ccc(S(=O)(=O)N(C(C)=O)c2ccccc2/C=C/c2cc[n+]([O-])cc2)cc1 [HMN-214] | > 30 µM (inactive) | > 30 µM (inactive) | > 30 µM (inactive) | > 30 µM (inactive) | > 30 µM (inactive) | > 30 µM (inactive) | > 30 µM (inactive) | > 30 µM (inactive)
3 | O=C(Nc1cc(C(F)(F)F)cc(C(F)(F)F)c1)c1cc(Cl)ccc1O [IMD-0354] | > 30 µM (inactive) | > 30 µM (inactive) | > 30 µM (inactive) | > 30 µM (inactive) | > 30 µM (inactive) | > 30 µM (inactive) | > 30 µM (inactive) | > 30 µM (inactive)
4 | CNC(=O)c1cccc2cc(Oc3ccnc4cc(OCC5(N)CC5)c(OC)cc34)ccc12 [LUCITANIB] | > 30 µM (inactive) | > 30 µM (inactive) | > 30 µM (inactive) | > 30 µM (inactive) | > 30 µM (inactive) | > 30 µM (inactive) | > 30 µM (inactive) | > 30 µM (inactive)
5 | NC1(c2ccc(-c3nc4ccn5c(=O)[nH]nc5c4cc3-c3ccccc3)cc2)CCC1 [MK-2206] | > 30 µM (inactive) | > 30 µM (inactive) | > 30 µM (inactive) | > 30 µM (inactive) | > 30 µM (inactive) | > 30 µM (inactive) | > 30 µM (inactive) | > 30 µM (inactive)
6 | CN(C[C@@H]1COCCO1)S(=O)(=O)Nc1ccc2ccc3ncc(-c4cnn(C)c4)cc3c(=O)c2c1 [MK-2461] | > 30 µM (inactive) | > 30 µM (inactive) | > 30 µM (inactive) | > 30 µM (inactive) | > 30 µM (inactive) | > 30 µM (inactive) | > 30 µM (inactive) | > 30 µM (inactive)
7 | Cn1cc(-c2cnc3ccc4ccc(CS(=O)(=O)NCc5ccccn5)cc4c(=O)c3c2)cn1 [MK-8033] | > 30 µM (inactive) | > 30 µM (inactive) | > 30 µM (inactive) | > 30 µM (inactive) | > 30 µM (inactive) | > 30 µM (inactive) | > 30 µM (inactive) | > 30 µM (inactive)
8 | FC(F)(F)c1ccc(/C=C/c2nc(COc3ccc(CCCCn4ccnn4)cc3)co2)cc1 [MUBRITINIB] | > 30 µM (inactive) | > 30 µM (inactive) | > 30 µM (inactive) | > 30 µM (inactive) | > 30 µM (inactive) | > 30 µM (inactive) | > 30 µM (inactive) | > 30 µM (inactive)
9 | COc1ncc(-c2ccc3nccc(-c4ccnnc4)c3c2)cc1NS(=O)(=O)c1ccc(F)cc1F [OMIPALISIB] | > 30 µM (inactive) | > 30 µM (inactive) | > 30 µM (inactive) | > 30 µM (inactive) | > 30 µM (inactive) | > 30 µM (inactive) | > 30 µM (inactive) | > 30 µM (inactive)
10 | CCOc1cc2ncc(C#N)c(Nc3ccc(F)c(Cl)c3)c2cc1NC(=O)/C=C/CN(C)C [PELITINIB] | > 30 µM (inactive) | > 30 µM (inactive) | > 30 µM (inactive) | > 30 µM (inactive) | > 30 µM (inactive) | > 30 µM (inactive) | > 30 µM (inactive) | > 30 µM (inactive)
11 | CCCCCCCCCCCCCCCCCCOP(=O)([O-])OC1CC[N+](C)(C)CC1 [PERIFOSINE] | > 30 µM (inactive) | > 30 µM (inactive) | > 30 µM (inactive) | > 30 µM (inactive) | > 30 µM (inactive) | > 30 µM (inactive) | > 30 µM (inactive) | > 30 µM (inactive)
12 | Cc1cnc(NC(=O)Nc2cc(Br)c(C)cc2OC[C@@H]2CNCCO2)cn1 [RABUSERTIB] | > 30 µM (inactive) | > 30 µM (inactive) | > 30 µM (inactive) | > 30 µM (inactive) | > 30 µM (inactive) | > 30 µM (inactive) | > 30 µM (inactive) | > 30 µM (inactive)
13 | CO[C@H]1C[C@@H]2CC[C@@H](C)[C@@](O)(O2)C(=O)C(=O)N2CCCC[C@H]2C(=O)O[C@H]([C@H](C)C[C@@H]2CC[C@@H](OP(C)(C)=O)[C@H](OC)C2)CC(=O)[C@H](C)/C=C(\C)[C@@H](O)[C@@H](OC)C(=O)[C@H](C)C[C@H](C)/C=C/C=C/C=C/1C [RIDAFOROLIMUS] | > 30 µM (inactive) | > 30 µM (inactive) | > 30 µM (inactive) | > 30 µM (inactive) | > 30 µM (inactive) | > 30 µM (inactive) | > 30 µM (inactive) | > 30 µM (inactive)
14 | N#CC1(c2ccc(NC(=O)c3cccnc3NCc3ccncc3)cc2)CCCC1 [RIVOCERANIB] | > 30 µM (inactive) | > 30 µM (inactive) | > 30 µM (inactive) | > 30 µM (inactive) | > 30 µM (inactive) | > 30 µM (inactive) | > 30 µM (inactive) | > 30 µM (inactive)
15 | O=c1[nH]ccc2cc(OC3CCNCC3)ccc12 [SAR-407899 FREE BASE] | > 30 µM (inactive) | > 30 µM (inactive) | > 30 µM (inactive) | > 30 µM (inactive) | > 30 µM (inactive) | 0.019 µM (active) | > 30 µM (inactive) | > 30 µM (inactive)
16 | Cn1cc(-c2cnn3c(N)c(Br)c([C@@H]4CCCNC4)nc23)cn1 [SCH-900776] | > 30 µM (inactive) | > 30 µM (inactive) | > 30 µM (inactive) | > 30 µM (inactive) | > 30 µM (inactive) | > 30 µM (inactive) | > 30 µM (inactive) | > 30 µM (inactive)
